Measurements taken from ChEMBL document CHEMBL1201862, “PubChem BioAssay data set” (2004).
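Dose response: 5 concentrations. Exposure: 48 h. Format: 96-well plates. Endpoint: linear interpolation; highest concentration if not reached. The concentration for 50% growth inhibition is given as GI50.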 Active and inactive are the calls of the source. Rule as the data show it: active = GI50 up to about 1.1 µM and inactive = higher.

Experiments:
Assay in all cases: DTP human tumour cell line panel, 48 h
A549 = test system: A549
CAKI-1 = test system: CAKI-1
CCRF-CEM = test system: CCRF-CEM
EKVX = test system: EKVX
HOP-62 = test system: HOP-62
HOP-92 = test system: HOP-92
LOX IMVI = test system: LOX IMVI
M14 = test system: M14
NCI-H522 = test system: NCI-H522
OVCAR-5 = test system: OVCAR-5
RPMI-8226 = test system: RPMI-8226
SK-MEL-5 = test system: SK-MEL-5
SNB-19 = test system: SNB-19
SNB-75 = test system: SNB-75
SW-620 = test system: SW-620
TK-10 = test system: TK-10
UACC-257 = test system: UACC-257
MCF7 = test system: MCF7
NCI/ADR-RES = test system: NCI/ADR-RES

Measured: GI50

CC(/C=C/C(=O)c1sc(-n2nc(-c3ccccc3)cc2-c2ccccc2)nc1C)=C\c1ccccc1
inactive: A549 38.8 µM | CAKI-1 20.7 µM | CCRF-CEM 27.7 µM | EKVX 5.05 µM | HOP-62 > 10 µM | HOP-92 8.69 µM | LOX IMVI 71.9 µM | M14 > 10 µM | NCI-H522 19 µM | OVCAR-5 > 10 µM | RPMI-8226 19.3 µM | SK-MEL-5 15.5 µM | SNB-19 64.3 µM | SNB-75 2.02 µM | SW-620 > 10 µM | TK-10 > 10 µM | UACC-257 47.1 µM

COC(=O)C(Cc1cc(OC)c(OC)c(OC)c1)(NC(=O)c1ccccc1)P(=O)(OC)OC (configuration not stated)
inactive: A549 > 100 µM | CAKI-1 > 100 µM | CCRF-CEM > 100 µM | EKVX > 100 µM | HOP-62 > 100 µM | HOP-92 > 100 µM | LOX IMVI > 100 µM | M14 > 100 µM | NCI-H522 > 100 µM | OVCAR-5 > 100 µM | RPMI-8226 > 100 µM | SK-MEL-5 > 100 µM | SNB-19 > 100 µM | SNB-75 > 100 µM | SW-620 > 100 µM | TK-10 > 100 µM | UACC-257 > 100 µM

CC(C)C1=C(Cc2ccccc2)C(=O)O/C1=C\c1cc(Cl)c(O)c(Cl)c1
inactive: A549 21.6 µM | CAKI-1 15.8 µM | CCRF-CEM 16 µM | EKVX 26.1 µM | HOP-62 20.2 µM | LOX IMVI 17.4 µM | M14 19.1 µM | MCF7 27.9 µM | NCI/ADR-RES 23.3 µM | OVCAR-5 21.7 µM | RPMI-8226 17.3 µM | SK-MEL-5 18.7 µM | SNB-19 17.1 µM | SNB-75 20.1 µM | SW-620 23.1 µM | TK-10 26 µM | UACC-257 16.9 µM

CC(C)N(C(=O)C12C3C4C5(C#N)C3C1(C#N)C5C42I)C(C)C (configuration not stated)
inactive: A549 > 59 µM | CAKI-1 > 100 µM | CCRF-CEM > 39.9 µM | EKVX > 100 µM | HOP-62 > 100 µM | HOP-92 > 100 µM | LOX IMVI > 49.5 µM | M14 > 100 µM | NCI-H522 > 33.7 µM | OVCAR-5 > 100 µM | RPMI-8226 > 46.1 µM | SK-MEL-5 > 100 µM | SNB-19 > 100 µM | SNB-75 > 59 µM | SW-620 > 41.4 µM | TK-10 > 100 µM | UACC-257 > 100 µM

O=C(CC1OC(O)C(Cl)=C1Cl)c1cccnc1 (configuration not stated)
inactive: A549 > 100 µM | CAKI-1 > 100 µM | CCRF-CEM > 100 µM | EKVX > 100 µM | HOP-62 > 50.2 µM | HOP-92 > 100 µM | LOX IMVI > 100 µM | M14 > 100 µM | NCI-H522 > 100 µM | OVCAR-5 > 100 µM | RPMI-8226 > 34.7 µM | SK-MEL-5 83.8 µM | SNB-19 > 100 µM | SNB-75 > 100 µM | TK-10 > 100 µM | UACC-257 > 100 µM

Clc1ccc(CCN[C@H]2CCCC[C@H]2N2CCCC2)cc1Cl
inactive: A549 26.4 µM | CAKI-1 27.4 µM | CCRF-CEM 30.7 µM | EKVX 57.8 µM | HOP-62 20 µM | LOX IMVI 16 µM | M14 15.3 µM | MCF7 16.1 µM | NCI-H522 17.3 µM | NCI/ADR-RES 21.4 µM | OVCAR-5 20.6 µM | RPMI-8226 25.2 µM | SK-MEL-5 14.6 µM | SNB-19 25.9 µM | SW-620 34 µM | TK-10 7.19 µM | UACC-257 12 µM

O=C(OCC(OC(=O)c1ccccc1)C1CC(C2(O)CCCCC2)C(=O)O1)c1ccccc1 (configuration not stated)
inactive: A549 > 25 µM | CAKI-1 > 25 µM | CCRF-CEM 13.4 µM | EKVX > 25 µM | HOP-62 > 25 µM | LOX IMVI > 25 µM | M14 > 25 µM | MCF7 21 µM | NCI-H522 > 25 µM | NCI/ADR-RES > 25 µM | OVCAR-5 > 25 µM | RPMI-8226 > 25 µM | SK-MEL-5 > 25 µM | SNB-19 > 25 µM | SNB-75 15.7 µM | SW-620 > 25 µM | TK-10 > 25 µM | UACC-257 > 25 µM

COc1ccc(/C=C(\C#N)c2ccccn2)cc1OC
inactive: A549 41.5 µM | CAKI-1 60.7 µM | CCRF-CEM 60.5 µM | EKVX 5.4 µM | HOP-62 36.7 µM | HOP-92 17 µM | M14 > 100 µM | MCF7 17.9 µM | NCI-H522 39.8 µM | NCI/ADR-RES 20.4 µM | OVCAR-5 51.4 µM | RPMI-8226 45.7 µM | SK-MEL-5 25.1 µM | SNB-19 39.8 µM | SNB-75 21.3 µM | SW-620 56.1 µM | TK-10 63.7 µM | UACC-257 > 100 µM
